Assay results reported in patent US20240082275A1, “Pharmaceutical formulations comprising 5-Chloro-N4-[2-(dimethylphosphoryl)phenyl]-N2-{2-methoxy-4-[4-(4-methylpiperazin-1-yl)piperidin-1-yl]phenyl}pyrimidine-2,4-diamine” (Takeda Pharmaceutical Company Limited, priority 2017, published 2024).

Test: Solid-state properties of brigatinib Form A (hygroscopicity, polymorphic conversion)
Format: physicochemical

COc1cc(N2CCC(N3CCN(C)CC3)CC2)ccc1Nc1ncc(Cl)c(Nc2ccccc2P(C)(C)=O)n1 [Brigatinib Form A, 5-chloro-N4-[2-(dimethylphosphoryl)phenyl]-N2-{2-methoxy-4-[4-(4-methylpiperazin-1-yl)piperidin-1-yl]phenyl}pyrimidine-2,4-diamine]
hygroscopicity: non-hygroscopic | conversion to other polymorphic forms (solvent-mediated or solid-solid transitions, elevated temperature, elevated humidity, mechanical pressure or grinding): does not convert to other polymorphic forms
